Experimental findings from US11072609B2, “Method for preparing halogenated imidazopyridine derivatives” (Bayer Aktiengesellschaft, priority 2017, dated 2021) are described below.

Series [1] concerns Myzus persicae. Briefly: Myzus persicae - oral test. The series is classed as in vivo. Particulars: application rate 4 ppm; after 5 days; 100% = all aphids killed. On the procedure:
Myzus persicae—Oral Test Solvent: 100 parts by weight of acetone To produce a suitable active ingredient formulation, 1 part by weight of active ingredient is dissolved with the stated parts by weight of solvent and made up to the desired concentration with water. 50 μl of the active ingredient formulation are transferred into microtitre plates and made up to a final volume of 200 μl with 150 μl of IPL41 insect medium (33%+15% sugar). Subsequently, the plates are sealed with parafilm, which a mixed population of green peach aphids (Myzus persicae) within a second microtitre plate is able to puncture and imbibe the solution. After 5 days, the efficacy in % is determined. 100% means that all the aphids have been killed; 0% means that no aphids have been killed.

Series [2] has as its system Myzus persicae. Briefly: Myzus persicae - spray test. The series is classed as in vivo. Particulars: Chinese cabbage leaf discs, after 5 days. On the procedure:
Myzus persicae—Spray Test [table] To produce a suitable active ingredient formulation, 1 part by weight of active ingredient is dissolved with the specified parts by weight of solvent and made up to the desired concentration with water containing an emulsifier concentration of 1000 ppm. To produce further test concentrations, the formulation is diluted with emulsifier-containing water. Discs of Chinese cabbage leaves (Brassica pekinensis) infested by all stages of the green peach aphid (Myzus persicae) are sprayed with an active ingredient formulation of the desired concentration. After 5 days, the efficacy in % is determined. 100% means that all the aphids have been killed; 0% means that no aphids have been killed.

The subject of series [3] is Phaedon cochleariae. The experiment in a line: Phaedon cochleariae - spray test. The series is classed as in vivo. The settings on record: application rate 100 g/ha; Chinese cabbage leaf discs, larvae; after 7 days. The protocol: Phaedon cochleariae—Spray Test
To produce a suitable active ingredient formulation, 1 part by weight of active ingredient is dissolved with the specified parts by weight of solvent and made up to the desired concentration with water containing an emulsifier concentration of 1000 ppm. To produce further test concentrations, the formulation is diluted with emulsifier-containing water.
Discs of Chinese cabbage leaves (Brassica pekinensis) are sprayed with an active ingredient formularation of the desired concentration and, after drying, populated with larvae of the mustard beetle (Phaedon cochleariae).
After 7 days, the efficacy in % is determined. 100% means that all the beetle larvae have been killed; 0% means that no beetle larvae have been killed.

A short description of series [4]: log P by HPLC on reversed-phase column (C 18), EEC Directive 79/831 Annex V.A8. The series is classed as physicochemical. Particulars: reversed-phase C18 HPLC column; HPLC-MS, reversed-phase C 18, 55° C.; acidic or neutral range not stated. The protocol: The log P values are measured according to EEC Directive 79/831 Annex V.A8 by HPLC (high-performance liquid chromatography) on a reversed-phase column (C 18). Temperature: 55° C. The LC-MS determination in the acidic range is carried out at pH 2.7 using the mobile phases 0.1% aqueous formic acid and acetonitrile (contains 0.1% formic acid); linear gradient from 10% acetonitrile to 95% acetonitrile. The LC-MS determination in the neutral range is carried out at pH 7.8 using the mobile phases 0.001 molar aqueous ammonium bicarbonate solution and acetonitrile; linear gradient from 10% acetonitrile to 95% acetonitrile. Calibration is carried out using unbranched alkan-2-ones (having 3 to 16 carbon atoms) with known log P values (log P values determined on the basis of the retention times by linear interpolation between two successive alkanones).

The subject of series [5] is Spodoptera frugiperda. Briefly: Spodoptera frugiverda - spray test. Particulars: application rate 100 g/ha; maize leaf discs, caterpillars; after 7 days. The series is classed as in vivo. The protocol:
Spodoptera frugiverda—Spray Test [table] To produce a suitable active ingredient formulation, 1 part by weight of active ingredient is dissolved with the specified parts by weight of solvent and made up to the desired concentration with water containing an emulsifier concentration of 1000 ppm. To produce further test concentrations, the formulation is diluted with emulsifier-containing water. Leaf discs of maize (Zea mays) are sprayed with an active ingredient formulation of the desired concentration and, after drying, populated with caterpillars of the armyworm (Spodoptera frugiperda). After 7 days, the efficacy in % is determined. 100% means that all the caterpillars have been killed; 0% means that no caterpillar has been killed.

As for `CCS(=O)(=O)c1ccc(-n2cncn2)nc1-c1nc2cc(C(F)(F)F)nc(C)c2n1C` [compound 2], the efficacy in series [1] was 100%; in series [2] (application rate 20 g/ha), 90%; in series [3], 83%.

In general, chromatographic logP refers to a lipophilicity value derived from retention on a column. As to `CCSc1ccc(Cl)nc1-c1nc2cc(C(F)(F)F)nc(C#N)c2n1C` [Example 5, 2-[6-chloro-3-(ethylsulfanyl)pyridin-2-yl]-3-methyl-6-(trifluoromethyl)-3H-imidazo[4,5-c]pyridine-4-carbonitrile], the chromatographic logP in series [4] turned out to be 3.84.

Consider `CCS(=O)(=O)c1ccc(-n2cncn2)nc1-c1nc2cc(C(F)(F)F)nc(Cl)c2n1C` [compound 3], for which the efficacy in series [1], in series [2] (application rate 20 g/ha), in series [2] (application rate 100 g/ha) and in series [5] was 100% each time.

On to `CCSc1ccc(Br)nc1-c1nc2cc(C(F)(F)F)nc(Cl)c2n1C` [Example 7, 2-[6-bromo-3-(ethylsulfanyl)pyridin-2-yl]-4-chloro-3-methyl-6-(trifluoromethyl)-3H-imidazo[4,5-c]pyridine], for which the chromatographic logP in series [4] was 4.18.

In turn, `CCSc1ccc(Br)nc1-c1nc2cc(C(F)(F)F)nc(I)c2n1C` [Example 2, 2-[6-bromo-3-(ethylsulfanyl)pyridin-2-yl]-4-iodo-3-methyl-6-(trifluoromethyl)-3H-imidazo[4,5-c]pyridine] returned a chromatographic logP in series [4] of 4.34.

In series [4], `CCSc1ccc(Br)nc1-c1nc2cc(C(F)(F)F)nc(C#N)c2n1C` [Example 6, 2-[6-bromo-3-(ethylsulfanyl)pyridin-2-yl]-3-methyl-6-(trifluoromethyl)-3H-imidazo[4,5-c]pyridine-4-carbonitrile] came in with a chromatographic logP of 3.87.

`CCSc1ccc(Cl)nc1-c1nc2cc(C(F)(F)F)nc(C)c2n1C` [Example 3, 2-[6-chloro-3-(ethylsulfanyl)pyridin-2-yl]-3,4-dimethyl-6-(trifluoromethyl)-3H-imidazo[4,5-c]pyridine]: the chromatographic logP in series [4] worked out at 3.23.

Compound `CCSc1ccc(Cl)nc1-c1nc2cc(C(F)(F)F)nc(I)c2n1C` [Example 1, 2-[6-chloro-3-(ethylsulfanyl)pyridin-2-yl]-4-iodo-3-methyl-6-(trifluoromethyl)-3H-imidazo[4,5-c]pyridine] had a chromatographic logP in series [4] of 4.17.

In series [4], `CCSc1ccc(Br)nc1-c1nc2cc(C(F)(F)F)nc(C)c2n1C` [Example 4, 2-[6-bromo-3-(ethylsulfanyl)pyridin-2-yl]-3,4-dimethyl-6-(trifluoromethyl)-3H-imidazo[4,5-c]pyridine] had a chromatographic logP of 3.36.

On to `CCS(=O)(=O)c1ccc(-n2cncn2)nc1-c1nc2cc(C(F)(F)F)nc(C#N)c2n1C` [Compound No. 1, 2-[3-(ethylsulfonyl)-6-(1H-1,2,4-triazol-1-yl)pyridin-2-yl]-3-methyl-6-(trifluoromethyl)-3H-imidazo[4,5-c]pyridine-4-carbonitrile], for which the efficacy is reported as 100% in series [1] and 83% in series [3].
